Measured values reported in PMC10299909, “Structural basis of efficacy-driven ligand selectivity at GPCRs” (Nature Chemical Biology, 2023).
Substitutions are numbered along the chain they refer to. Values joined by “and” are separate entries in the source; they are usually repeats but may differ in a detail not shown here. Equal values may be shown once. Read-outs that look alike come from different tables or passages of the source.

How the values were obtained:
M4 L190F mAChR [1] = biological target: T1, M4 L190F mAChR (Homo sapiens, UniProt P08173, L190F); experiment: BRET TRUPATH GoA activation (G-protein dissociation) assay; assay type: cell-based; settings: T=6min, listed as Ach
T1 construct: expressed in transfected cells; host or cells: CHO FlpIn
T1 sequence (P08173 1-479 L190F): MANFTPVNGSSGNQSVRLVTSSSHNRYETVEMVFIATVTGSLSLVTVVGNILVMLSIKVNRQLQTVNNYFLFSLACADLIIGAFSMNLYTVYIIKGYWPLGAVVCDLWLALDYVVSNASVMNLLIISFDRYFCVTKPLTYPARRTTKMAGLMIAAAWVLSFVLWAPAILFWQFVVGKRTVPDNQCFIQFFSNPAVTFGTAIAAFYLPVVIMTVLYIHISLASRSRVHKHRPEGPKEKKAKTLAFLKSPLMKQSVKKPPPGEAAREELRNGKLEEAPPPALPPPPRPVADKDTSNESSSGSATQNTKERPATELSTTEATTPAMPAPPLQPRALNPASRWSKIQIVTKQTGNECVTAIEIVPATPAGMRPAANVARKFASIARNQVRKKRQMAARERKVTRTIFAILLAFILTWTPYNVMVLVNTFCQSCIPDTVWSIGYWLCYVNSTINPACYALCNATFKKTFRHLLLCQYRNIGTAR
Experimental: (§1) Cells were seeded at 20,000 cells per well into 96-well flat-bottom white culture plates and grown for 4 h. Plasmid DNA (20 ng per well of Gα, Gβ and Gγ at a 1:1:1 ratio) and linear polyethylenimine were added to the cells in a 1:6 ratio. To allow for protein expression, cells were then incubated (37 °C, 5% CO2) for 48 h before the measurement of agonist activity. […] The initial 4 min of measurement was considered baseline counts before ligand or vehicle addition, with BRET readings every 2 min for a further 8 min following drug or vehicle addition.
(§2) Concentration–response curves were fitted to a three-parameter logistic equation to derive ligand potency (pEC50) estimates.
(§3) Data was analyzed using the operational model of agonism to quantify the efficacy (Logτ) of each agonist in each cell line, and subsequently corrected for receptor expression level differences between cell lines (Logτc), using the M2 WT as reference. […] Source data

M2 WT mAChR = biological target: T2, M2 WT mAChR (Homo sapiens, UniProt P08172); experiment: as above; assay type: cell-based; settings: M2 wt, T=6min, individual experiments, listed as Ach
T2 construct: expressed in transfected cells; host or cells: CHO FlpIn
T2 sequence (P08172 1-466): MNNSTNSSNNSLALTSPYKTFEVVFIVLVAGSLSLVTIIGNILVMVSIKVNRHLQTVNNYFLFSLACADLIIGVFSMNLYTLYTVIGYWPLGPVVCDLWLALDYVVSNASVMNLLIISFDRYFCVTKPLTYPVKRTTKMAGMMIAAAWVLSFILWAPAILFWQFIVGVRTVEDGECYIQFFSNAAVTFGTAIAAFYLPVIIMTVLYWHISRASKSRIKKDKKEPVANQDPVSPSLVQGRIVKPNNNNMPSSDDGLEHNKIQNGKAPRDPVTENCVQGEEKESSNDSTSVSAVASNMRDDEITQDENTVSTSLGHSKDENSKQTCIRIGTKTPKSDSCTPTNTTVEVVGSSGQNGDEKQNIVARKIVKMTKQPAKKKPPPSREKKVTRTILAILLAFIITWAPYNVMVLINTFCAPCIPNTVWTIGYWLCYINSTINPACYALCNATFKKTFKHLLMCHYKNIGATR
Experimental: as §1, §2, §3

M4 WT mAChR = biological target: T3, M4 WT mAChR (Homo sapiens, UniProt P08173); experiment: as above; assay type: cell-based; settings: T=6min, listed as Ach
T3 construct: expressed in transfected cells; host or cells: CHO FlpIn
T3 sequence (P08173 1-479): T1 sequence (P08173 1-479 L190F) with F190L
Experimental: as §1, §2, §3

M2 mAChR [2] = biological target: M2 mAChR (Homo sapiens, UniProt P08172)
M5 mAChR [3] = biological target: T4, M5 mAChR (Homo sapiens, UniProt P08912); experiment: pERK1/pERK2 signaling assay (AlphaScreen SureFire), CHO FlpIn cells; assay type: cell-based; settings: first set of experiments
T4 construct: expressed in transfected cells; host or cells: CHO FlpIn
T4 sequence (P08912 1-532): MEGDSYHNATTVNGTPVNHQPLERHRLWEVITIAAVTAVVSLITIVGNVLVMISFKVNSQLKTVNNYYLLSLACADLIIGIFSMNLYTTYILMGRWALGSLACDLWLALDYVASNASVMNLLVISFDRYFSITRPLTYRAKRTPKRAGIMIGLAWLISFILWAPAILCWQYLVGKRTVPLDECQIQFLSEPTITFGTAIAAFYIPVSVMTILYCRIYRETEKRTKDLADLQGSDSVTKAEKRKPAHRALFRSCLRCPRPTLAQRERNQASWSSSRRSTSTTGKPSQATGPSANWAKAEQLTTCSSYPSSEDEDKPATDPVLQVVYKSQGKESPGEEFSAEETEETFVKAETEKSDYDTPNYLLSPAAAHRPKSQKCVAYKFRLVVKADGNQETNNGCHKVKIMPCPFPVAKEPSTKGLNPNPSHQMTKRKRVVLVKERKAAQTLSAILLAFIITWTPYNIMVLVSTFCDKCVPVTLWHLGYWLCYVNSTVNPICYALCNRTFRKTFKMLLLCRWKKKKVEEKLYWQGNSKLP

M4 L190F mAChR [4] = biological target: T1, M4 L190F mAChR; experiment: as above; assay type: cell-based
M3 mAChR [5] = biological target: T5, M3 mAChR (Homo sapiens, UniProt P20309); experiment: as above; assay type: cell-based; settings: M3; first set of experiments
T5 construct: expressed in transfected cells; host or cells: CHO FlpIn

M4 mAChR [6] = biological target: M4 mAChR (Homo sapiens, UniProt P08173); experiment: [3H]NMS competition binding, purified receptor in lipid nanodiscs with Gi1 heterotrimer
M2 mAChR [7] = biological target: T6, M2 mAChR (Homo sapiens, UniProt P08172); experiment: pERK1/pERK2 signaling assay (AlphaScreen SureFire), CHO FlpIn cells; assay type: cell-based; settings: Figure 5c, by tail length, best fit value from nonlinear regression on grouped data
T6 sequence (P08172 1-466): T2 sequence (P08172 1-466)

M4 mAChR [8] = biological target: T7, M4 mAChR (Homo sapiens, UniProt P08173); experiment: as above; assay type: cell-based; settings: Figure 5c, by tail length, best fit value from nonlinear regression on grouped data
T7 construct: expressed in transfected cells; host or cells: CHO FlpIn
T7 sequence (P08173 1-479): T1 sequence (P08173 1-479 L190F) with F190L

M5 mAChR [9] = biological target: T4, M5 mAChR; experiment: whole-cell [3H]NMS radioligand competition binding, CHO FlpIn cells; settings: first set of experiments, read-out: pKI (radioligand binding competition with [3H]NMS) (converted)
M3 mAChR [10] = biological target: T5, M3 mAChR; experiment: as above; settings: first set of experiments, read-out: pKI (radioligand binding competition with [3H]NMS) (converted)
M2 mAChR [11] = biological target: T6, M2 mAChR; experiment: cell-based
M4 mAChR [12] = biological target: T7, M4 mAChR; experiment: whole-cell [3H]NMS radioligand competition binding, CHO FlpIn cells; settings: M4; first set of experiments (top 5 rows); read-out: pKI (radioligand binding competition with [3H]NMS) (converted)
M1 mAChR = M1 mAChR (Homo sapiens, UniProt P11229); experiment: cell-based
[13] = Log[Ligand] (M) -4, individual experiments
[14] = Log[Ligand] (M) -9, individual experiments
[15] = Log[Ligand] (M) -10, individual experiments
[16] = Log[Ligand] (M) -12, individual experiments
[17] = Receptor : G protein Molar Ratio 1:0

CC(=O)OCC[N+](C)(C)C [Acetylcholine, acetylcholine]
GoA activation response (M4 L190F mAChR [1]; [13]): 106.304 % Emax ACh and 103.075 % Emax ACh and 107.769 % Emax ACh and 104.574 % Emax ACh and 105.838 % Emax ACh | GoA activation response (M4 L190F mAChR [1]; Log[Ligand] (M) -5, individual experiments): 99.5547 % Emax ACh and 105.081 % Emax ACh and 94.0499 % Emax ACh and 100.086 % Emax ACh and 98.7018 % Emax ACh | GoA activation response (M4 L190F mAChR [1]; Log[Ligand] (M) -6, individual experiments): 84.6502 % Emax ACh and 86.1198 % Emax ACh and 94.9784 % Emax ACh and 91.5878 % Emax ACh and 95.0975 % Emax ACh | GoA activation response (M4 L190F mAChR [1]; Log[Ligand] (M) -7, individual experiments): 59.4174 % Emax ACh and 69.5753 % Emax ACh and 70.634 % Emax ACh and 76.3729 % Emax ACh and 78.8634 % Emax ACh | GoA activation response (M4 L190F mAChR [1]; Log[Ligand] (M) -8, individual experiments): 12.4418 % Emax ACh and 20.3625 % Emax ACh and 19.5412 % Emax ACh and 25.1119 % Emax ACh and 33.5842 % Emax ACh | GoA activation response (M4 L190F mAChR [1]; [14]): 1.269 % Emax ACh and 1.901 % Emax ACh and 28.8031 % Emax ACh and 3.9293 % Emax ACh and 7.995 % Emax ACh | GoA activation response (M4 L190F mAChR [1]; [15]): -3.41 % Emax ACh and 9.605 % Emax ACh and 0.2419 % Emax ACh and -0.9 % Emax ACh and 0.4231 % Emax ACh | GoA activation response (M4 L190F mAChR [1]; [16]): 2.811 % Emax ACh and -10.3446 % Emax ACh and -23.8686 % Emax ACh and 0.009116 % Emax ACh and -3.752 % Emax ACh | GoA activation response (M2 WT mAChR; Log[Ligand] (M) -4): 103.24 % Emax ACh and 95.841 % Emax ACh and 98.7568 % Emax ACh and 99.8054 % Emax ACh and 99.3813 % Emax ACh | GoA activation response (M2 WT mAChR; Log[Ligand] (M) -8): 9.766 % Emax ACh | GoA activation response (M2 WT mAChR; Log[Ligand] (M) -9): 1.63 % Emax ACh and -3.189 % Emax ACh and -6.851 % Emax ACh and 0.4007 % Emax ACh and 0.416 % Emax ACh | GoA activation response (M2 WT mAChR; Log[Ligand] (M) -10): -3.058 % Emax ACh and 8.597 % Emax ACh and 0.3009 % Emax ACh and 1.683 % Emax ACh and 4.386 % Emax ACh | GoA activation response (M2 WT mAChR; Log[Ligand] (M) -12): 6.399 % Emax ACh and 0.8864 % Emax ACh and 8.076 % Emax ACh and 1.671 % Emax ACh and -0.9147 % Emax ACh | GoA activation response (M4 WT mAChR; [13]): 104.45 % Emax ACh and 102.662 % Emax ACh and 101.586 % Emax ACh and 101.003 % Emax ACh and 104.541 % Emax ACh | GoA activation response (M4 WT mAChR; [14]): 1.1727 % Emax ACh and 5.239 % Emax ACh and 5.623 % Emax ACh and -1.171 % Emax ACh and 2.894 % Emax ACh | GoA activation response (M4 WT mAChR; [15]): 3.695 % Emax ACh and 0.8905 % Emax ACh and -7.035 % Emax ACh and 0.4855 % Emax ACh and -3.187 % Emax ACh | GoA activation response (M4 WT mAChR; [16]): -21.8016 % Emax ACh and 1.058 % Emax ACh and -6.101 % Emax ACh and 1.717 % Emax ACh and -0.3266 % Emax ACh | Fraction of receptors in a G protein-dependent high-affinity state (M2 mAChR [2]; [17]): 0.13 ± 0.10 | Fraction of receptors in a G protein-dependent high-affinity state (M2 mAChR [2]; Receptor : G protein Molar Ratio 1:50): 0.33 ± 0.10 | Fraction of receptors in a G protein-dependent high-affinity state (M2 mAChR [2]; Receptor : G protein Molar Ratio 1:1000): 0.57 ± 0.11 | Fraction of receptors in a G protein-dependent high-affinity state (M2 mAChR [2]; Receptor : G protein Molar Ratio 1:2000): 0.89 ± 0.12 | Emax pERK1/2 (M5 mAChR [3]): 90 ± 4 % FBS stimulation | Emax pERK1/2 (M4 L190F mAChR [4]): 94 ± 8 % FBS stimulation | Emax pERK1/2 (M3 mAChR [5]): 98 ± 5 % FBS stimulation | Fraction of receptors in a G protein-dependent high-affinity state (M4 mAChR [6]; [17]): 0.00 ± 0.04 | Fraction of receptors in a G protein-dependent high-affinity state (M4 mAChR [6]; Receptor : G protein Molar Ratio 1:125): 0.30 ± 0.04 | Fraction of receptors in a G protein-dependent high-affinity state (M4 mAChR [6]; Receptor : G protein Molar Ratio 1:500): 0.71 ± 0.03

CCCCCCOc1nsnc1C1=CCCN(C)C1 [C6]
Fit parameter (M2 mAChR [7]): 0.08358 | Fit parameter (M4 mAChR [8]): 0.5137

CCCOc1nsnc1C1=CCCN(C)C1 [C3]
Fit parameter (M2 mAChR [7]): 0.6149 | Fit parameter (M4 mAChR [8]): 0.346

CCCOc1nsnc1C1=CCCN(C)C1 [3-carbon tail analog of xanomeline]
Ki (M5 mAChR [9]): 49 nM | Ki (M3 mAChR [10]): 34.7 nM | Ki (M2 mAChR [11]): 22.9 nM | Ki (M4 mAChR [12]): 37.2 nM | Ki (M1 mAChR): 27.5 nM
